{
  "source": "patent US20110294732A1",
  "about": "“ERYTHROPOLETIN COMPLEMENTATION OR REPLACEMENT” (Universite De Strasbourg, priority 2007, published 2011)",
  "key": {"whole blood [1]": {"tested_on": "whole blood", "assay": "In vitro P50 of whole blood after incubation with effector, human", "format": "cell-based", "conditions": "60 mM", "protocol": "(§1) For the in vitro experiments, ITPP was dissolved in deionized water, pH was adjusted to pH 7 and, for incubation with whole blood, the osmolarity of the ITPP solutions was adjusted with glucose to 270-297 mOsM. Mixtures of hemoglobin and ITPP were measured with a HEMOX analyzer (PD Marketing, London) immediately after mixing. Red blood cells were incubated with ITPP for 1 hour at 37° C. Following incubation, the cells were washed 3 times with Bis-Tris-buffer (pH=7.0) and then used for P50 measurement.\n(§2) ITPP was tested along with a cholesteroyl derivative (here designated as kf96) (both at 60 mM) as effectors for P50 shifts in whole blood of three species: human, mouse and pig. As usual, pHs for the compound-solutions were adjusted to ca. 7.0, osmolarities for both solutions were determined (325-373 mOsM) prior to treatment with the effectors, and whole blood volumes at 1:1 ratios were incubated."}, "RBCs": {"tested_on": "RBCs", "assay": "Lysis of RBCs after in vitro incubation with effector", "format": "cell-based, human, mouse and pig"}, "murine hemoglobin": {"molecular_target": "murine hemoglobin (Mus musculus, UniProt P02088)", "sequence (P02088 2-147 limits assumed)": "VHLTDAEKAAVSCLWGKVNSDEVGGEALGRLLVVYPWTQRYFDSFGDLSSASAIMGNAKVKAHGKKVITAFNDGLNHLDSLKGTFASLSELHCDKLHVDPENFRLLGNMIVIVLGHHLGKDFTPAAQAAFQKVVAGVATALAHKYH", "sequence (P01942 2-142 partner limits assumed)": "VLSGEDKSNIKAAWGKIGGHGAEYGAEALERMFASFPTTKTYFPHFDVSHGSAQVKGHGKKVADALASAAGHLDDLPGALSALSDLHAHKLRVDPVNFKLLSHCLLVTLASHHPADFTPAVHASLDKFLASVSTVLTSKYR", "assay": "In vitro P50 shift of hemoglobin mixed with ITPP (HEMOX analyzer)", "format": "biochemical", "protocol": "Myo-ITPP was tested for its ability to induce a decrease of the O2-affinity of hemoglobin measured as a shift of the P50 value (P50 at 50% saturation of hemoglobin). The observed shifts to higher PO2 were up to 250% in murine hemoglobin and up to 40% in murine whole blood. This finding was particularly striking because the shifts occurred concomitantly in vivo with a decrease in the number of RBCs and hematocrit; such hemodilution is recognized as a positive indicator in many circumstances because it is diagnostic for downregulation of RBC production where the body's oxygen needs are being met efficiently. Additional support came from enhancement of the effort capacity of test animals by up to 100% following ITPP administration, which confirmed that oxygen was being delivered efficiently to the working muscle, and only to that muscle.\nas §1"}, "whole blood [2]": {"tested_on": "whole blood", "assay": "In vitro P50 of whole blood after incubation with effector, pig", "format": "cell-based", "conditions": "60 mM", "protocol": "as §1, §2"}, "[3]": {"assay": "Tolerability and toxicity of intravenous injection in piglets", "format": "in vivo", "protocol": "(§3) An in vivo experiment was performed on one 8 week-old normal piglet (body weight: 17 kg). The piglet was anesthesized with 5% Isoflurane, 0.7 L/min N2O and 2.0 L/min O2 for 20-30 minutes, when ITPP was injected, or blood was taken from the ear vein, respectively. The compound injected intravenous at a concentration of 27 g ITPP/100 ml water (volume injected: 63 ml, pH 6.5, containing 17 g ITPP=1 g/l kg body weight) was not harmful to the animal, when injected into the piglet's ear vein over at least 10 minutes.\n(§4) Intravenous injection of 1 g ITPP/kg body weight caused a significant right shift of the P50-value (up to 20%) in porcine RBCs. An almost saturated ITPP solution, pH 6.7, was injected intravenously into two piglets (both of ca. 18 kg body weight) (27 g ITPP/100 ml=1.5 g/kg body weight) over 20 minutes.\nBlood was taken from the heart of the dead animals for determination of blood counts as well as the amount of sodium, potassium and calcium in the sera. All numbers of blood cells (hematocrit, white blood cells etc.) were halved. The amount of potassium and calcium was normal, while sodium was doubled (before injection: 120-140 mmol/L; after injection: 245 mmol/L). Apparently, the large amount of sodium in that form of ITPP (6 Na^+/molecule) caused the death of the animals. It appears that up to 1 g ITPP per kg body weight can be injected intravenously, (if injected slowly) without harmful effects for the animals. […] A second piglet was also injected with ITPP at the 1 g/kg concentration, after 2 piglets had died after iv injection of 1.2 g ITPP (or even more) per kg body weight. […] Starting with day 3 after injection of the allosteric effector, the number of reticulocytes increased by about 3% for a period of 14 days."}, "[4]": {"assay": "Tolerability of oral treatment in mice", "format": "in vivo, C57BL/6 mice", "conditions": "drinking over 4 days", "protocol": "(§5) Twelve C57BL/6 mice drank ITPP over 4 days (about 25 ml/24 hrs). Seven Control mice drank either pure water (three mice), or a solution of IHP (inositol hexaphosphate without the internal pyrophosphate rings) at the same concentration and pH as ITPP (4 mice). […] Blood was collected from the tail vein of the 12 C57BL/6 mice on day 0 (before treatment started), 1, 2, 4, 6, 7, 8, 10, 11 and 12, in order to measure P50 values. […] Oral application of ITPP caused significant right shifts of P50 (up to 31%) in mice."}, "porcine RBCs": {"tested_on": "porcine RBCs", "assay": "P50 shift of porcine RBCs after intravenous injection", "format": "in vivo, piglet", "conditions": "intravenous 1 g ITPP/kg body weight", "protocol": "as §3, §4"}, "[5]": {"assay": "Blood counts of mice after oral ingestion", "format": "in vivo", "conditions": "single mouse, oral in water for 4 days; day 0 count 8.9-11.8"}, "circulating RBC": {"tested_on": "circulating RBC", "assay": "P50 shift of circulating RBC after oral administration in drinking water", "format": "in vivo, C57BL/6 mice", "protocol": "In experiments conducted in vivo in which ITPP was administered orally, ITPP was dissolved in drinking (not deionized) water at a 20 g/L-concentration (=27 mM, pH 7.0) and offered for drinking ad libitum. A significant shift of the P50 value of circulating RBCs was observed.\nas §5\nThe 12 mice were observed over 12 days, the P50 values of their circulating RBC were measured almost daily. […] It appears that all mice ingesting the aqueous solution of ITPP present a shift of the P50 value of their circulating RBC, albeit with individual differences. FIG. 8 illustrates the individual differences in the P50 shift induced in the mice by ingestion of the aqueous solution of ITPP."}, "whole blood [6]": {"tested_on": "whole blood", "assay": "In vitro P50 of whole blood after incubation with effector, mouse", "format": "cell-based", "protocol": "as §1, §2"}, "[7]": {"assay": "Hematocrit after IP injection", "format": "in vivo", "conditions": "6 days after IP injection of 200 μl of a 60 mM solution; 40% on day 0", "protocol": "It appears, based upon the preliminary data reported, that an inverse relationship exists between the number of RBCs and shift of their P50 value (see FIG. 1). The basal value of the RBC count is restored, once ΔP50 becomes 0%, 12 days after ingestion of ITPP. The hematocrit drops from 40% on day 0 (before ITPP administration) to 32%, 6 days after IP injection of 200 μl of a 60 mM ITPP solution."}},
  "note": "Where “and” joins values, the source holds several entries; their conditions need not be identical. Equal values may be shown once. Entries after “also recorded” stand apart in the source; their conditions may differ.",
  "data": [
    {"compound": "O=P1(O)OC2C3OP(=O)(O)OP(=O)(O)OC3C3OP(=O)(O)OP(=O)(O)OC3C2OP(=O)(O)O1", "note": "(stereo not shown) [ITPP, inositol-tripyrophosphate]", "values": [
      {"measurement": "P50 increase, % (ITPP)", "setting": "whole blood [1]", "value": 39, "unit": "%"},
      {"measurement": "P50 mm Hg effector ITPP", "setting": "whole blood [1]; control 22.1", "value": 30.8, "unit": "mm Hg"},
      {"measurement": "lysis of RBCs", "setting": "RBCs", "value": "never occurred; also recorded: no lysis of RBCs was observed"},
      {"measurement": "shift of the P50 value to higher PO2", "setting": "murine hemoglobin", "value": "up to 250%"},
      {"measurement": "P50 increase, % (ITPP)", "setting": "whole blood [2]; pig whole blood", "value": 40, "unit": "%"},
      {"measurement": "P50 mm Hg effector ITPP", "setting": "whole blood [2]; pig whole blood, control 32.2", "value": 45.2, "unit": "mm Hg"},
      {"measurement": "right shift in the Hb-O2 dissociation curve, strongest shift", "setting": "whole blood [2]; summary over human, pig and mouse whole blood", "value": "up to 40%"},
      {"measurement": "harmfulness of intravenous injection", "setting": "[3]; 1 g/kg body weight, injected slowly over at least 10 minutes", "value": "not harmful"},
      {"measurement": "amount of potassium and calcium in the sera", "setting": "[3]; after lethal iv injection", "value": "normal"},
      {"measurement": "sodium in the sera after injection", "setting": "[3]; after lethal iv injection, before injection 120-140", "value": 245, "unit": "mmol/L"},
      {"measurement": "numbers of blood cells (hematocrit, white blood cells etc.) in the dead animals", "setting": "[3]; heart blood after lethal iv injection", "value": "halved"},
      {"measurement": "amount that can be injected intravenously without harmful effects", "setting": "[3]; if injected slowly", "value": "up to 1 g ITPP per kg body weight"},
      {"measurement": "mortality", "setting": "[3]; iv, almost saturated solution 27 g/100 ml, intended 1.5 g/kg over 20 minutes, received <1.3 g/kg", "value": "Both piglets died; also recorded: killed the animals"},
      {"measurement": "tolerability of oral treatment", "setting": "[4]", "value": "No C57BL/6 mouse seemed to suffer"},
      {"measurement": "right shift of the P50-value", "setting": "porcine RBCs", "value": "up to 20%"},
      {"measurement": "RBC × 10^6/mm^3", "setting": "[5]", "value": "9.35 10^6/mm^3 and 8.60 10^6/mm^3 and 8.95 10^6/mm^3 (2×) and 8.88 10^6/mm^3 and 8.70 10^6/mm^3 and 8.73 10^6/mm^3 and 7.65 10^6/mm^3 and 7.80 10^6/mm^3"},
      {"measurement": "time for P50 values to return to control values", "setting": "circulating RBC; ingestion stopped on day 4", "value": "≤ 12", "unit": "days"},
      {"measurement": "time lag before the maximum P50 shift is attained", "setting": "circulating RBC; oral, 27 mM", "value": "about 48 hrs"},
      {"measurement": "right shift of P50", "setting": "circulating RBC; oral, 20 g/L (27 mM) in drinking water over 4 days", "value": "up to 31%"},
      {"measurement": "P50 day 7, %", "setting": "circulating RBC; single mouse, oral in water for 4 days, day 7", "value": "13% and 14% and 20% (2×) and 16% (2×) and 15% and 7% and 9%"},
      {"measurement": "P50 day 10, %", "setting": "circulating RBC; single mouse, oral in water for 4 days, day 10", "value": "10% (3×) and 6% and 12% and 16% and 8% and 11% and 9%"},
      {"measurement": "P50 increase, % (ITPP)", "setting": "whole blood [6]; mouse whole blood, 60 mM", "value": 29, "unit": "%"},
      {"measurement": "P50 mm Hg effector ITPP", "setting": "whole blood [6]; mouse whole blood, 60 mM, control 36.7", "value": 47.4, "unit": "mm Hg"},
      {"measurement": "shift of the P50 value to higher PO2", "setting": "whole blood [6]; murine whole blood", "value": "up to 40%"},
      {"measurement": "hematocrit", "setting": "[7]", "value": 32, "unit": "%"}
    ]}
  ]
}
